Values of other authors, collected in patent US20130004545A1, “SLOW RELEASE PHARMACEUTICAL COMPOSITIONS OF ILOPERIDONE” (LUPIN LIMITED, priority 2009, published 2013).

Legend:
[1] = for t1/2: metabolite of iloperidone
5-HT2A receptors = 5-HT2A receptors (Homo sapiens, UniProt P28223)
plasma proteins = conditions: administered orally

Chain of 5-HT2A receptors (P28223 whole entry): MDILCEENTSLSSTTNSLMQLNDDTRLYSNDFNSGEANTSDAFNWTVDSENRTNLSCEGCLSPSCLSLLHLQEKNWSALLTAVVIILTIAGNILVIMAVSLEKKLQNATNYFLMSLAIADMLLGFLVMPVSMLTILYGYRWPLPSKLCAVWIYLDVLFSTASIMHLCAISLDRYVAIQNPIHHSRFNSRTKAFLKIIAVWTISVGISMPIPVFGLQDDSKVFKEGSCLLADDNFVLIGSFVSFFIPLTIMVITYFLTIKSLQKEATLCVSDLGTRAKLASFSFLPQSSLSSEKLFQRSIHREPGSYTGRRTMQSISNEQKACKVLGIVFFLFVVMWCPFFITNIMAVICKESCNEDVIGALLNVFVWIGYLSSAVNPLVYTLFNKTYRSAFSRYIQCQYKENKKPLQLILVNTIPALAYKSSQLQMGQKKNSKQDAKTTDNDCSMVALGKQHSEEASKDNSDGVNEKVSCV

Structure (SMILES): COc1cc(C(=O)O)ccc1OCCCN1CCC(c2noc3cc(F)ccc23)CC1 [Example P95, 4-[3-[4-(6-fluoro-1,2,-benzisoxazol-3-yl)-1-piperidinyl]propoxy]-3-methoxy-benzoic acid]
- t1/2 [1]: 25.6 h
- receptor affinity (5-HT2A receptors): affinity for only 5-HT2A receptors

Structure (SMILES): COc1cc(C(C)=O)ccc1OCCCN1CCC(c2noc3cc(F)ccc23)CC1 [Iloperidone]
- binding to plasma proteins (plasma proteins): highly bound to plasma proteins

Structure (SMILES): COc1cc(C(C)O)ccc1OCCCN1CCC(c2noc3cc(F)ccc23)CC1 (stereo not drawn) [Example P88]
- t1/2 [1]: 25.6 h
- Plasma level relative to Iloperidone ([1]; metabolite plasma level, reported): approximately 1.5 times that of Iloperidone
- tmax ([1]; metabolite, after oral administration of parent active ingredient): 6 h
